{
  "source": "patent US6977262B2",
  "about": "“Dihydropyrazolopyridine compounds and pharmaceutical use thereof” (Mitsubishi Pharma Corporation, priority 2001, dated 2005)",
  "data": [
    {"units": {"melting point": "°C"}, "values": [
      {"molecule": "CCCC1=C(C(=O)OCC)C(c2cccc(F)c2C)c2c[nH]nc2N1", "note": "(centres unmarked) [Example 45, Ethyl 4-(3-fluoro-2-methylphenyl)-4,7-dihydro-6-propyl-2H-pyrazolo[3,4-b]pyridine-5-carboxylate]", "melting point": "159 to 162"},
      {"molecule": "CCCC1=C(C(=O)OCC)C(c2cccc(OC)c2OC)c2c[nH]nc2N1", "note": "(centres unmarked) [Example 46, Ethyl 4-(2,3-dimethoxyphenyl)-4,7-dihydro-6-propyl-2H-pyrazolo[3,4-b]pyridine-5-carboxylate]", "melting point": "205 to 206"},
      {"molecule": "CCCC1=C(C(=O)OCC)C(c2cccc(C(F)(F)F)c2Cl)c2c[nH]nc2N1", "note": "(centres unmarked) [Example 47, Ethyl 4-(2-chloro-3-trifluoromethylphenyl)-4,7-dihydro-6-propyl-2H-pyrazolo[3,4-b]pyridine-5-carboxylate]", "melting point": "236 to 238"},
      {"molecule": "CCCC1=C(C(=O)OCC)C(c2cc(F)ccc2F)c2c[nH]nc2N1", "note": "(centres unmarked) [Example 49, Ethyl 4-(2,5-difluorophenyl)-4,7-dihydro-6-propyl-2H-pyrazolo[3,4-b]pyridine-5-carboxylate]", "melting point": "168 to 169"},
      {"molecule": "CCCC1=C(C(=O)OCC)C(c2cc(Cl)ccc2Cl)c2c[nH]nc2N1", "note": "(centres unmarked) [Example 50, Ethyl 4-(2,5-dichlorophenyl)-4,7-dihydro-6-propyl-2H-pyrazolo[3,4-b]pyridine-5-carboxylate]", "melting point": 162},
      {"molecule": "CCCC1=C(C(=O)OCC)C(c2cc(F)ccc2OC)c2c[nH]nc2N1", "note": "(centres unmarked) [Example 51, Ethyl 4-(5-fluoro-2-methoxyphenyl)-4,7-dihydro-6-propyl-2H-pyrazolo[3,4-b]pyridine-5-carboxylate]", "melting point": "164 to 167"},
      {"molecule": "CCCC1=C(C(=O)OCC)C(c2cc(OC)ccc2Cl)c2c[nH]nc2N1", "note": "(centres unmarked) [Example 52, Ethyl 4-(2-chloro-5-methoxyphenyl)-4,7-dihydro-6-propyl-2H-pyrazolo[3,4-b]pyridine-5-carboxylate]", "melting point": 182},
      {"molecule": "CCCC1=C(C(=O)OCC)C(c2cc(OC)ccc2OC)c2c[nH]nc2N1", "note": "(centres unmarked) [Example 53, Ethyl 4-(2,5-dimethoxyphenyl)-4,7-dihydro-6-propyl-2H-pyrazolo[3,4-b]pyridine-5-carboxylate]", "melting point": "169 to 170"},
      {"molecule": "CCCC1=C(C(=O)OCC)C(c2c(F)cccc2F)c2c[nH]nc2N1", "note": "(centres unmarked) [Example 54, Ethyl 4-(2,6-difluorophenyl)-4,7-dihydro-6-propyl-2H-pyrazolo[3,4-b]pyridine-5-carboxylate]", "melting point": 185},
      {"molecule": "CCCC1=C(C(=O)OCC)C(c2c(Cl)cccc2Cl)c2c[nH]nc2N1", "note": "(centres unmarked) [Example 55, Ethyl 4-(2,6-dichlorophenyl)-4,7-dihydro-6-propyl-2H-pyrazolo[3,4-b]pyridine-5-carboxylate]", "melting point": 202},
      {"molecule": "CCCC1=C(C(=O)OCC)C(c2c(F)cccc2Cl)c2c[nH]nc2N1", "note": "(centres unmarked) [Example 56, Ethyl 4-(2-chloro-6-fluorophenyl)-4,7-dihydro-6-propyl-2H-pyrazolo[3,4-b]pyridine-5-carboxylate]", "melting point": "180 to 183"},
      {"molecule": "CCCC1=C(C(=O)OCC)C(c2ccco2)c2c[nH]nc2N1.O=C(O)/C=C\\C(=O)O", "note": "(centres unmarked) [Example 59, Ethyl 4-(furan-2-yl)-4,7-dihydro-6-propyl-2H-pyrazolo[3,4-b]pyridine-5-carboxylate maleate]", "melting point": "108 to 111"},
      {"molecule": "CCCC1=C(C(=O)OCC)C(c2ccoc2C)c2c[nH]nc2N1", "note": "(centres unmarked) [Example 61, Ethyl 4,7-dihydro-4-(2-methylfuran-3-yl)-6-propyl-2H-pyrazolo[3,4-b]pyridine-5-carboxylate]", "melting point": "123 to 125"},
      {"molecule": "CCCC1=C(C(=O)OCC)C(c2cccs2)c2c[nH]nc2N1.O=C(O)/C=C\\C(=O)O", "note": "(centres unmarked) [Example 62, Ethyl 4,7-dihydro-6-propyl-4-(thiophen-2-yl)-2H-pyrazolo[3,4-b]pyridine-5-carboxylate maleate]", "melting point": "129 to 131"},
      {"molecule": "CCCC1=C(C(=O)OCC)C(c2sccc2C)c2c[nH]nc2N1", "note": "(centres unmarked) [Example 63, Ethyl 4,7-dihydro-4-(3-methylthiophen-2-yl)-6-propyl-2H-pyrazolo[3,4-b]pyridine-5-carboxylate]", "melting point": 125},
      {"molecule": "CCCC1=C(C(=O)OCC)C(c2ccc(Cl)s2)c2c[nH]nc2N1.O=C(O)/C=C\\C(=O)O", "note": "(centres unmarked) [Example 64, Ethyl 4-(5-chlorothiophen-2-yl)-4,7-dihydro-6-propyl-2H-pyrazolo[3,4-b]pyridine-5-carboxylate maleate]", "melting point": "129 to 131"},
      {"molecule": "CCCC1=C(C(=O)OCC)C(c2ccsc2)c2c[nH]nc2N1.O=C(O)/C=C\\C(=O)O", "note": "(centres unmarked) [Example 65, Ethyl 4,7-dihydro-6-propyl-4-(thiophen-3-yl)-2H-pyrazolo[3,4-b]pyridine-5-carboxylate maleate]", "melting point": "141 to 143"},
      {"molecule": "CCCC1=C(C(=O)OCC)C(c2cccc3ccccc23)c2c[nH]nc2N1", "note": "(centres unmarked) [Example 66, Ethyl 4,7-dihydro-4-(naphthalen-1-yl)-6-propyl-2H-pyrazolo[3,4-b]pyridine-5-carboxylate]", "melting point": 182},
      {"molecule": "CCCC1=C(C(=O)OCC)C(c2ccc3ccccc3c2)c2c[nH]nc2N1.O=C(O)/C=C\\C(=O)O", "note": "(centres unmarked) [Example 67, Ethyl 4,7-dihydro-4-(naphthalen-2-yl)-6-propyl-2H-pyrazolo[3,4-b]pyridine-5-carboxylate maleate]", "melting point": "136 to 138"},
      {"molecule": "CCCC1=C(C(=O)OCC)C(c2c(OC)ccc3ccccc23)c2c[nH]nc2N1", "note": "(centres unmarked) [Example 68, Ethyl 4,7-dihydro-4-(2-methoxynaphthalen-1-yl)-6-propyl-2H-pyrazolo[3,4-b]pyridine-5-carboxylate]", "melting point": "188 to 191"},
      {"molecule": "CCCC1=C(C(=O)OCC)C(c2cccc3c2OCC=C3)c2c[nH]nc2N1", "note": "(centres unmarked) [Example 72, Ethyl 4-(2H-1-benzopyran-8-yl)-4,7-dihydro-6-propyl-2H-pyrazolo[3,4-b]pyridine-5-carboxylate]", "melting point": 194},
      {"molecule": "CCCC1=C(C(=O)OCC)C(c2cccc3c2OCCC3)c2c[nH]nc2N1", "note": "(centres unmarked) [Example 73, Ethyl 4-(3,4-dihydro-2H-benzopyran-8-yl)-4,7-dihydro-6-propyl-2H-pyrazolo[3,4-b]pyridine-5-carboxylate]", "melting point": 208},
      {"molecule": "CCCC1=C(C(=O)OCC)C(c2ccnc3ccccc23)c2c[nH]nc2N1", "note": "(centres unmarked) [Example 74, Ethyl 4,7-dihydro-6-propyl-4-(quinolin-4-yl)-2H-pyrazolo[3,4-b]pyridine-5-carboxylate]", "melting point": 198},
      {"molecule": "CCCC1=C(C(=O)OCC)C(c2csc3ccccc23)c2c[nH]nc2N1", "note": "(centres unmarked) [Example 75, Ethyl 4-(benzo[b]thiophen-3-yl)-4,7-dihydro-6-propyl-2H-pyrazolo[3,4-b]pyridine-5-carboxylate]", "melting point": 222},
      {"molecule": "CCCC1=C(C(=O)OCC)C(c2cccc3nonc23)c2c[nH]nc2N1", "note": "(centres unmarked) [Example 76, Ethyl 4-(2,1,3-benzoxadiazol-4-yl)-4,7-dihydro-6-propyl-2H-pyrazolo[3,4-b]pyridine-5-carboxylate]", "melting point": 207},
      {"molecule": "CCCC1=C(C(=O)OCC)C(c2ccc3c(c2)OCCO3)c2c[nH]nc2N1.O=C(O)/C=C\\C(=O)O", "note": "(centres unmarked) [Example 80, Ethyl 4-(2,3-dihydro-1,4-benzodioxin-6-yl)-4,7-dihydro-6-propyl-2H-pyrazolo[3,4-b]pyridine-5-carboxylate maleate]", "melting point": "147 to 149"},
      {"molecule": "CCCC1=C(C(=O)OCC)C(c2cc3ccccc3o2)c2c[nH]nc2N1.O=C(O)/C=C\\C(=O)O", "note": "(centres unmarked) [Example 81, Ethyl 4-(benzo[b]furan-2-yl)-4,7-dihydro-6-propyl-2H-pyrazolo[3,4-b]pyridine-5-carboxylate maleate]", "melting point": "123 to 125"},
      {"molecule": "CCOC(=O)C1=C(CC)Nc2n[nH]cc2C1c1ccccc1Cl", "note": "(centres unmarked) [Example 82, Ethyl 4-(2-chlorophenyl)-6-ethyl-4,7-dihydro-2H-pyrazolo[3,4-b]pyridine-5-carboxylate]", "melting point": 213},
      {"molecule": "CCCCC1=C(C(=O)OCC)C(c2ccccc2Cl)c2c[nH]nc2N1", "note": "(centres unmarked) [Example 83, Ethyl 6-butyl-4-(2-chlorophenyl)-4,7-dihydro-2H-pyrazolo[3,4-b]pyridine-5-carboxylate]", "melting point": 209},
      {"molecule": "COCC1=C(C(=O)OC)C(c2ccccc2Cl)c2c[nH]nc2N1", "note": "(centres unmarked) [Example 84, Methyl 4-(2-chlorophenyl)-4,7-dihydro-6-methoxymethyl-2H-pyrazolo[3,4-b]pyridine-5-carboxylate]", "melting point": 160},
      {"molecule": "CCOC(=O)C1=C(c2ccccc2)Nc2n[nH]cc2C1c1ccccc1Cl", "note": "(centres unmarked) [Example 85, Ethyl 4-(2-chlorophenyl)-4,7-dihydro-6-phenyl-2H-pyrazolo[3,4-b]pyridine-5-carboxylate]", "melting point": 214},
      {"molecule": "CCOC(=O)C1=C(c2ccc(OC)cc2)Nc2n[nH]cc2C1c1ccccc1Cl", "note": "(centres unmarked) [Example 86, Ethyl 4-(2-chlorophenyl)-4,7-dihydro-6-(4-methoxyphenyl)-2H-pyrazolo[3,4-b]pyridine-5-carboxylate]", "melting point": 211},
      {"molecule": "CCOC(=O)C1=C(c2cccs2)Nc2n[nH]cc2C1c1ccccc1Cl", "note": "(centres unmarked) [Example 87, Ethyl 4-(2-chlorophenyl)-4,7-dihydro-6-(thiophen-2-yl)-2H-pyrazolo[3,4-b]pyridine-5-carboxylate]", "melting point": 200},
      {"molecule": "CCOC(=O)C1=C(Cc2ccccc2)Nc2n[nH]cc2C1c1ccccc1Cl", "note": "(centres unmarked) [Example 88, Ethyl 6-benzyl-4-(2-chlorophenyl)-4,7-dihydro-2H-pyrazolo[3,4-b]pyridine-5-carboxylate]", "melting point": 247},
      {"molecule": "CCOC(=O)C1=C(CC)Nc2n[nH]cc2C1c1ccccc1OC", "note": "(centres unmarked) [Example 89, Ethyl 6-ethyl-4,7-dihydro-4-(2-methoxyphenyl)-2H-pyrazolo[3,4-b]pyridine-5-carboxylate]", "melting point": 169},
      {"molecule": "CCCCC1=C(C(=O)OCC)C(c2ccccc2OC)c2c[nH]nc2N1", "note": "(centres unmarked) [Example 90, Ethyl 6-butyl-4,7-dihydro-4-(2-methoxyphenyl)-2H-pyrazolo[3,4-b]pyridine-5-carboxylate]", "melting point": 190},
      {"molecule": "COCC1=C(C(=O)OC)C(c2ccccc2OC)c2c[nH]nc2N1", "note": "(centres unmarked) [Example 91, Methyl 4,7-dihydro-6-methoxymethyl-4-(2-methoxyphenyl)-2H-pyrazolo[3,4-b]pyridine-5-carboxylate]", "melting point": 186},
      {"molecule": "CCOC(=O)C1=C(c2ccccc2)Nc2n[nH]cc2C1c1ccccc1OC", "note": "(centres unmarked) [Example 92, Ethyl 4,7-dihydro-4-(2-methoxyphenyl)-6-phenyl-2H-pyrazolo[3,4-b]pyridine-5-carboxylate]", "melting point": 195}
    ]}
  ]
}
